Assay results published in patent publication US10780069B2, “Use of GC-1 in transplant related population” (University of Pittsburgh—Of the Commonwealth System of …, priority 2017, dated 2020).

What was measured:
[1] = tested on: hMet-S45Y-β-catenin HCC model; assay: GC-1 diet in hMet-S45Y-β-catenin HCC model; format: in vivo, mice; conditions: for increase in gene expression of deiodinase (RT-PCR, liver): p<0.001
Experimental: SBTT plasmids and HTVI have been described previously (Tao et al., Hepatology 2016, 64:1587-605). Briefly, […] pT3-EF5α-hMet-V5 and pT3-EF5α-S45Y-β-catenin-Myc combination along with the transposase in a ratio of 25:1 were diluted in 2 ml of normal saline (0.9% NaCl), filtered through 0.22 μm filter (Millipore), and injected into the lateral tail vein of 23 FVB mice that were around 6-week-old, in 5-7 seconds. These mice are referred henceforth as hMet-mutant-β-catenin mice. Four weeks after injection, hMet-mutant-β-catenin mice were randomized into two groups. One group was kept on basal diet (n=12) and another group was switched to GC-1-supplemented diet (5 mg/kg of diet, Medchem Express) (n=11). Animals on control diet were sacrificed at either 21 days (n=8) or 10 days (n=4) after initiation of diet. Similarly, animals on GC-1-diet were sacrificed at either 21 days (n=7) or 10 days (n=4) after initiation of the diet. The animals were given access to food and water ad libitum with a 12-hour light/dark daily cycle. One intraperitoneal injection of BrdU was performed on day 9 during 10 days of GC-1 or basal diet treatment and livers were harvested 24 hours later. Guidelines for the Care and Use of Laboratory Animals were followed.
Four micron formalin-fixed sections were deparaffinized in graded xylene and alcohol and rinsed in PBS. To block endogenous peroxidase activity, the sections were incubated in 3% hydrogen peroxide (Sigma). For antigen retrieval, slides were microwaved in citrate buffer followed by blocking with Superblock (ScyTek Laboratories, Logan, Utah) for 10 minutes. Sections were incubated overnight at 4° C. or 1 hour room temperature in the following antibodies: cyclin-D1 (Thermo-Scientific, Fremont, Calif.), Glutamine synthetase, Ki-67, Myc-tag and CD45 (Santa Cruz Biotechnology, Dallas, Tex.). Sections were then incubated with species-specific secondary horseradish peroxidase-conjugated antibody for 30 minutes at room temperature. Sections stained with antibodies were incubated with streptavidin-biotin and signal was detected with DAB. Cell death was evaluated in liver sections by terminal deoxynucleotidyl transferase dUTP nick end labeling (TUNEL) using manufacturer's instructions available with the kit (EMD-Millipore). BrdU was stained with mouse antibody (Becton Dickinson, Franklin Lakes, N.J.) as previously described (Alvarado et al., Gene Expr 2016, 17:19-34). Briefly, tissue sections were deparaffinized, exposed to 0.3% hydrogen peroxide in deionized water for 10 minutes to block endogenous peroxidase, treated with 2N HCl, incubated with trypsin 0.1% for 20 minutes and then with normal goat serum for 20 minutes at room temperature. Sections were then incubated overnight in cold room with anti-BrdU monoclonal antibody, followed by biotinylated goat anti-mouse IgG. DAB kit was then applied, and sections were counterstained with hematoxylin.
For quantification of Ki-67 immunohistochemistry (IHC), pictures were taken at 200× magnification from either tumor or non-tumor areas in the same slide. Each picture was separated into DAB staining channel and hematoxylin staining channel by Color Deconvolution using Imagej Fiji. To quantify the number of Ki-67 positive nuclei on each picture, the DAB staining on the DAB channel was highlighted with the threshold of 48 and then quantified with Analyze Particles. All particles of areas smaller than 100 pixels were excluded. To quantify the total number of nuclei on each picture the hematoxylin staining on the hematoxylin channel was highlighted with the threshold of 205 and then quantified with Analyze Particles with similar exclusion of small areas. The percentage of Ki-67-positive nuclei on each picture was calculated by dividing the number of particles counted from DAB channel by the number of particles counted from the hematoxylin channel. […]

[2] = Serum ALT/bilirubin and hepatic histology after GC-1 or T3; format: in vivo, mice
Experimental: All studies on mice were performed in strict accordance with Guidelines. Eight-week old male C57BL/6 male mice (Jackson/Charles River) were maintained on a standard laboratory basal diet (Test Diet) (n=4), or fed a T3-supplemented diet (4 mg/Kg of diet, Sigma Chemicals, St. Louis Mo.) (n=4). GC-1 was administered to the eight week-old male C57BL/6 male mice either via GC-1-supplemented diet (5 mg/Kg of diet, Medchem Express) for 8 days (n=4) or via daily intraperitoneal injections (IP) of GC-1 dissolved in DMSO (0.3 mg/kg/dose) for 8 days (n=7). As a control group for injections, DMSO alone was injected daily intraperitoneal (IP) for 8 days (n=5). Mice were sacrificed 24 hours after the last injection.

Glutamine synthetase (GS) IHC of tumors ([1]; 21 days, both groups): uniformly and comparably positive
Compound: Cc1cc(OCC(=O)O)cc(C)c1Cc1ccc(O)c(C(C)C)c1 [GC-1, Sobetirome]
increase in gene expression of deiodinase (RT-PCR, liver) ([1]; 10-days of GC-1-diet vs basal diet): around 10 fold | increase in gene expression of deiodinase (RT-PCR, liver) ([1]; 21-days of GC-1-diet vs basal diet): around 40 fold | cyclin-D1 and GS IHC of tumors ([1]; 10 days GC-1 diet): continued to be positive | tumor foci by H&E and Myc-tag staining ([1]; 10 days GC-1 diet): Smaller and fewer tumor foci | gross liver appearance ([1]; 10 days GC-1 diet vs basal diet): indistinguishable | liver weight to body weight ratio (LW/BW) ([1]; 10 days GC-1 diet vs basal diet, p=0.0022): significant decrease | BrdU and Ki-67 IHC within tumor foci ([1]; 10 days GC-1 vs basal diet): notable decrease | GS levels, WB ([1]; 10 days GC-1 vs basal diet): modest decreases | Ki-67-positive cell numbers in non-tumor areas ([1]; 10 days GC-1 vs basal diet): No differences | TUNEL-positive cells ([1]; 10 days GC-1 vs basal diet): Comparable numbers | cyclin-D1 levels, WB ([1]; 10 days GC-1 vs basal diet): marginal decreases | number of CD45-positive cells (inflammation) ([1]; 10 days GC-1 vs basal diet): No differences | total and active β-catenin levels, WB ([1]; 10 days GC-1 vs basal diet): modest decrease in the levels of total but not active β-catenin | percentage of Ki-67-positive cells within tumor nodules ([1]; 10 days GC-1 vs basal diet, p<0.01): significant decrease | p-AKT levels, WB ([1]; 10 days GC-1 vs control): did not have any effect | p-ERK1 and p-ERK2, WB ([1]; 10 days GC-1 vs control): dramatically decreased | p-Met (Tyr 1234/1235), WB, two independent antibodies ([1]; 10 days GC-1 vs control): profound decrease | p-STAT3, WB ([1]; 10 days GC-1 vs control): profound decrease | total AKT levels, WB ([1]; 10 days GC-1 vs control): no change | total ERK levels, WB ([1]; 10 days GC-1 vs control): unaffected | total Met levels, WB ([1]; 10 days GC-1 vs control): modestly decreased | total STAT3 levels, WB ([1]; 10 days GC-1 vs control): overall reduced | Myc-tag levels by Western blot ([1]; 21 days GC-1 diet): modest decrease | cyclin-D1 IHC of tumor nodules ([1]; 21 days GC-1 diet): strongly positive | gross liver appearance ([1]; 21 days GC-1 diet): relatively smooth surface and smaller nodules | tumor nodules by H&E and Myc-tag IHC ([1]; 21 days GC-1 diet): notably smaller tumor nodules | liver weight to body weight ratio (LW/BW) ([1]; 21 days GC-1 diet vs basal diet, p=0.0506): almost significant decrease | GS levels, WB ([1]; 21 days GC-1 vs basal diet): modest decrease | Ki-67-positive cells in non-tumor areas ([1]; 21 days GC-1 vs basal diet): insignificant | cyclin-D1 levels, WB ([1]; 21 days GC-1 vs basal diet): no change | p-AKT levels, WB ([1]; 21 days GC-1 vs basal diet): comparable levels | p-Met (Tyr 1234/1235), WB ([1]; 21 days GC-1 vs basal diet): dramatic decrease | p-STAT3 levels, WB ([1]; 21 days GC-1 vs basal diet): striking decrease | percentage of Ki-67 positive tumor cells within nodules ([1]; 21 days GC-1 vs basal diet): insignificant differences | total AKT levels, WB ([1]; 21 days GC-1 vs basal diet): marginally increased | total Met levels, WB ([1]; 21 days GC-1 vs basal diet): only marginally and variably decreased | total STAT3 levels, WB ([1]; 21 days GC-1 vs basal diet): relatively unaltered | total and active β-catenin levels, WB ([1]; 21 days GC-1 vs basal diet): remained unaltered | total and p-ERK1 and total and p-ERK2, WB ([1]; 21 days GC-1 vs basal diet): notably decreased | TUNEL-positive cells (cell death) ([1]; 21 days, basal diet vs GC-1): More TUNEL-positive cells were evident in the basal diet group | serum ALT or total bilirubin ([2]; GC-1 0.3 mg/Kg/dose daily IP 8 days, vs DMSO control): insignificant differences | hepatic histology (H&E) ([2]; GC-1 daily IP 8 days, vs DMSO control): normal hepatic histology | histological changes in the livers ([2]; T3 (4 mg/Kg of diet) or GC-1 (5 mg/Kg of diet) chow 8 days, vs basal diet): no histological changes
